Assay results reported in paper PMC6212544, “Identification and Characterization of Novel CFTR Potentiators” (Frontiers in Pharmacology, 2018).

Columns and labels:
[1] = biological target: T1, F508del CFTR (Homo sapiens, UniProt P13569, DEL508-508); test: Cell surface expression assay, HRP-tagged F508del CFTR in CFBe41o- cells; type: cell-based; parameters: expressed in transfected cells; settings: 24 h co-incubation with 10 μM VX809, concentration range of potentiator
Protocol: CFBE41o^- TetON cells expressing HRP tagged F508del-CFTR ([Veit et al., 2012]) were seeded at a density of 4,000 cells per well in white 384-well plates (Greiner). Medium containing 500 ng/ml doxycycline was used to induce expression of the F508del-CFTR–HRP construct. After 3 days, cells were treated with corrector and/or potentiator compounds and transferred to an incubator at 33°C. On day 4, cells were washed 5 times with PBS containing Ca^2+ and Mg^2+ using a Bio-Tek plate washer and incubated with a chemiluminescent HRP substrate (SuperSignal West Pico Chemiluminescent Substrate, Thermo Scientific) for 15 min. Chemiluminescence was measured using an Envision plate reader (Perkin Elmer).

[2] = biological target: T2, G551D CFTR (Homo sapiens, UniProt P13569, G551D); settings: ref Jih and Hwang (2013); cited from earlier work
T2 construct: expressed in transfected cells; host or cells: HEK293, transient (jetPEI)
T2 sequence (P13569 whole entry G551D): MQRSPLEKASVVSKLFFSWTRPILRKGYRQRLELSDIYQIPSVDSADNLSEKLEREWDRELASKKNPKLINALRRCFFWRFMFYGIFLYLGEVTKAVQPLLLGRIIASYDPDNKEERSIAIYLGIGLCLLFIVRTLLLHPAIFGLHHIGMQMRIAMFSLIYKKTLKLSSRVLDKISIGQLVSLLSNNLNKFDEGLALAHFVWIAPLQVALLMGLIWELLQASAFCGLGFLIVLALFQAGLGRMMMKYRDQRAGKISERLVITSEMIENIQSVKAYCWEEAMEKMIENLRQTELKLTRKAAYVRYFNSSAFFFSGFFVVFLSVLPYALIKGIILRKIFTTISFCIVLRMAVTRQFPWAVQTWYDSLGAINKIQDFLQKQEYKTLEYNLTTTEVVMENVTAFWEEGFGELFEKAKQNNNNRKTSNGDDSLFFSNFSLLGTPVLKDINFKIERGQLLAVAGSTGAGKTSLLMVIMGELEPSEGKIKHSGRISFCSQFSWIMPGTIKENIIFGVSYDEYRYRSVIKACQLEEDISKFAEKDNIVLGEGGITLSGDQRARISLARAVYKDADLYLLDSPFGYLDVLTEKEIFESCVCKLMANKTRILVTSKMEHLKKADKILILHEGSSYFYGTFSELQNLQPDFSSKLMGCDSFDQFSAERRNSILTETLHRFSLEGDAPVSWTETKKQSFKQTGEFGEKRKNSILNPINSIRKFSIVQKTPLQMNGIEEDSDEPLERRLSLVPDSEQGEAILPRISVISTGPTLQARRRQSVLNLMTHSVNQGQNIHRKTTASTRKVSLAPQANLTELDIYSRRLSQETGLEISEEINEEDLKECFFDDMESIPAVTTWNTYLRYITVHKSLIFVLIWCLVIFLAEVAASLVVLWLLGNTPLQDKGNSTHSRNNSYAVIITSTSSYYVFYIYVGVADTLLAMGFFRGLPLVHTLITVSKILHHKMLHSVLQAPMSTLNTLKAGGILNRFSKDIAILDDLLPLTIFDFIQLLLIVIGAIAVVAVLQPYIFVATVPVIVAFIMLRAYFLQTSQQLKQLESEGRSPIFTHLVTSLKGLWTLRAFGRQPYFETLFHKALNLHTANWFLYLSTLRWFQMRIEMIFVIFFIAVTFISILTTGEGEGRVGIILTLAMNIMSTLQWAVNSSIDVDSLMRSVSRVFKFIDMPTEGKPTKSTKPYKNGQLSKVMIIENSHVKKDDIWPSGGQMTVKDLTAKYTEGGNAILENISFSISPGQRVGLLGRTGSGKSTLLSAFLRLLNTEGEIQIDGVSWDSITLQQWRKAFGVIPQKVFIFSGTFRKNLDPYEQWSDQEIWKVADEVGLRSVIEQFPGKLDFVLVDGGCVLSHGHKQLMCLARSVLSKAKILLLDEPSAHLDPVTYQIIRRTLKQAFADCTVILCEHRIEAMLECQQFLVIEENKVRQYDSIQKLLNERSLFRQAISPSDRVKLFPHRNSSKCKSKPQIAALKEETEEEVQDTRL

[3] = patients carrying the G551D mutation; ref Ramsey et al., 2011; cited from earlier work
[4] = biological target: T1, F508del CFTR; test: YFP halide assay, CFBe41o- cells, low temperature rescued F508del CFTR; type: cell-based; settings: 27°C 24 h, 10 μM forskolin, read-out: EC50, potentiation of low temperature rescued F508del CFTR
Protocol: CFBe41o- cells were plated in black 384-well microplates at a density of 1,500 cells per well. After 24 h, cells were transduced with adenoviruses containing F508del CFTR and YFP (H148Q/I152L/) F47L using a multiplicity of infection of 30 infectious units per cell for each adenovirus. The next day, for the low temperature corrected assay, cells were incubated at 27°C for 24 h, for the chemically corrected assay cells were treated with corrector for 24 h at 37°C. On the day of analysis, cells were washed five times with Dulbecco’s Phosphate-Buffered Saline (DPBS) containing Ca^2+ and Mg^2+ (Life Technologies) using a Microplate Washer (BioTek). Then, cells were treated with 10 μM forskolin and the desired concentration of potentiator in a volume of 30 μl and the plates were incubated at room temperature for 10 min, a timepoint optimized in previous experiments showing good window (positive control/negative control > 2) and signal to background ratio. The YFP fluorescence was recorded for 2 min, starting immediately before addition of 30 μl NaI buffer (375 mM NaI, 7.5 mM KI, 1.76 mM KH2PO4, 10.1 mM Na2HPO4, 13.75 mM glucose) to the wells, using a FDSS/μCell (Hamamatsu) fluorescence reader with a 480 nm excitation filter and a 540 nm emission filter. The capacity of potentiators to increase CFTR channel function was expressed as 1-[fluorescence 36 s after NaI addition (F)/fluorescence before NaI addition (F0)], a timepoint optimized previously, resulting in an optimal signal window. Data was normalized using the formula: normalized response = 100^∗ (absolute response – negative control response)/(VX770 response – negative response) as such, VX770 response corresponds to 100. For Dose-response experiments, data was fitted using a 4 parameter hill function of the form Response = Bottom + (Top-Bottom)/(1 + 10ˆ((LogEC50-concentration)^∗HillSlope)) to determine EC50 values.

[5] = biological target: T1, F508del CFTR; test: TECC on corrector rescued F508del/F508del primary HBE cells; type: cell-based; parameters: endogenous in cells; host or cells: primary human bronchial epithelial cells, F508del/F508del donors (McGill University; University of North Carolina)
Protocol: Bronchial epithelial cells isolated from transplanted lungs from wild-type (WT), CF patients homozygous for the F508del mutation or heterozygous G551D/F508del or R334W/F508del patients, were obtained from McGill University (Montreal, Canada) and University of North Carolina (Chapel Hill, NC, United States). Cells were isolated from lungs obtained from donors undergoing a planned transplantation. These primary cells were cultured directly on type IV collagen-coated polycarbonate Transwell supports with a diameter of 6.5 mm and pore size of 0.4 μm (Costar, #3397) for 18–25 days in air liquid (ali) interface essentially as previously described ([Fulcher et al., 2005]). Trans-epithelial clamp circuit (TECC) recordings were performed using the TECC instrument developed and sold by EP Design (Bertem, Belgium). During the recording, the epithelial cells were bathed in a NaCl-Ringer solution (120 mM NaCl, 20 mM HEPES, 1.2 mM CaCl2, 1.2 mM MgCl2, 0.8 mM KH2PO4, 0.8 mM K2HPO4, 5 mM glucose, pH 7.4) on both the basolateral (640 μl) and the apical side (160 μl) and kept at 37°C. Apical amiloride was used to inhibit the endogenous ENaC currents (100 μM) while forskolin (10 μM) was applied on both the apical and basolateral sides to stimulate CFTR. All triggers and compounds used during the experiment were first dissolved in DMSO to a 1000 X concentrated solution, just prior to treatment a 10 X stock was prepared in the NaCl-Ringer solution which was used for addition of the correct concentration of trigger and or compound during the experiment. When using the F508del CFTR mutant, VX809 (3 μM) or GLPG2222 (1 μM) corrector was added on the basolateral side for 24 h to partially rescue F508del CFTR before adding the potentiator. For chronic experiments, the potentiator range was also added to the cells for 24 h and reapplied in the NaCl-ringer buffer prior to the electrophysiological recording. Measurements were done during a 20 min timeframe with recordings every 2 min. The transepithelial potential (PD) and transepithelial resistance (Rt) were measured in an open circuit and transformed to Ieq using Ohm’s law. The increase in Ieq (Δ Ieq) was used as a measure for the increased CFTR activity. EC50 values were generated by measuring impact of different concentrations of compound on Ieq in primary cells. For this purpose each transwell was treated with a different compound concentration. CFTRInh-172 was used at 10 μM to assess the specificity of the response. […] Data was fitted using a 3 parameter hill function of the form Response = Bottom + (Top-Bottom)/(1 + 10ˆ((LogEC50-concentration))) to determine EC50 values.

T1 sequence (P13569 with tags, fused parts or gaps DEL508-508): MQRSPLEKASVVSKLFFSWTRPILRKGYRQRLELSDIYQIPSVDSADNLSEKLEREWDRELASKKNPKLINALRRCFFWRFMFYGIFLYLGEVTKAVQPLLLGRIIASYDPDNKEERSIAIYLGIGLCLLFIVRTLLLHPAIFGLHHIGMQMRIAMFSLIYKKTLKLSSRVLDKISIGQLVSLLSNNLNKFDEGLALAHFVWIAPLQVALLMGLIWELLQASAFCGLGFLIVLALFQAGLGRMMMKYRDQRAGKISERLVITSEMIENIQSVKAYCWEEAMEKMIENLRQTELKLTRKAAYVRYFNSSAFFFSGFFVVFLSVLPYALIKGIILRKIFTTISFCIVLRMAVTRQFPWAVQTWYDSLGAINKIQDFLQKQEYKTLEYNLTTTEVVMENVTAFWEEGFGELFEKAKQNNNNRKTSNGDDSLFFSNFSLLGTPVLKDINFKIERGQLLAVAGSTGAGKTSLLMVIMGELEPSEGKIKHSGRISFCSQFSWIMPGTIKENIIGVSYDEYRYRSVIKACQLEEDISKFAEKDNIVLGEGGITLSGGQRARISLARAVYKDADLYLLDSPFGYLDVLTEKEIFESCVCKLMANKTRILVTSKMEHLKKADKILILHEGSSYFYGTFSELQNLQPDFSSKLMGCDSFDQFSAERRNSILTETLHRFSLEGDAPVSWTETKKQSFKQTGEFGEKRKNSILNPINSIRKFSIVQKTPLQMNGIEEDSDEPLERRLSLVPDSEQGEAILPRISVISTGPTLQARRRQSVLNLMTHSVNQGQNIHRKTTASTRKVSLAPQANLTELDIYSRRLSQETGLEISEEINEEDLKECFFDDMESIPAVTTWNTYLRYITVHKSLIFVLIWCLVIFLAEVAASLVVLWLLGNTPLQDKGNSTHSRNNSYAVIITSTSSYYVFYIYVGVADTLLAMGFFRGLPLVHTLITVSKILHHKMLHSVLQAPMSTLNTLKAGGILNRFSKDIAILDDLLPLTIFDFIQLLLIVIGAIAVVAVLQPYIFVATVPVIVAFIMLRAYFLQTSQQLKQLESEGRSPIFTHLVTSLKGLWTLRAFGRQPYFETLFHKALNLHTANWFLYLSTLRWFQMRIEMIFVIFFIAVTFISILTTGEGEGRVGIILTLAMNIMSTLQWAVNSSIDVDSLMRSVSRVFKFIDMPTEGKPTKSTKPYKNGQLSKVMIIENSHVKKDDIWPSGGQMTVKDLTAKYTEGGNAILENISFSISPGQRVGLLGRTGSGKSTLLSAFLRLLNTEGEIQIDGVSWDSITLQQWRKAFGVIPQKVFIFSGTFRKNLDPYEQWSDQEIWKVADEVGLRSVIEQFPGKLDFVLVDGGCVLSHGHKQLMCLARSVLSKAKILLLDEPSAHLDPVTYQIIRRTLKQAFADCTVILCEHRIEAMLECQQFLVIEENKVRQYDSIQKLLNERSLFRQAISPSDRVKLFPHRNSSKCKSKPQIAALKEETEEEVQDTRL

Structure (SMILES): CC(C)(C)c1cc(C(C)(C)C)c(NC(=O)c2c[nH]c3ccccc3c2=O)cc1O [VX770, N -(2,4-Di-tert-butyl-5-hydroxyphenyl)-4-oxo-1,4-dihydroquinoline-3-carboxamide, reference compound]
- Effect on cell surface expression of VX809 rescued F508del CFTR [1]: reduces the level of cell surface expressed F508del CFTR at all concentrations tested
- Increase of macroscopic G551D CFTR current [2]: 10 fold
- Improvement of lung function [3]: 10.6%
- EC50 [4]: 126 ± 10.9 nM
- Decrease in corrected F508del CFTR channel activity in chronic versus acute setting ([5]; 10 μM potentiator, corrected F508del/F508del HBE, 24 h): decrease in F508del CFTR channel activity
- EC50 ([5]; VX809 3 μM 24 h, acute potentiator addition, 10 μM forskolin, read-out: EC50 on VX809 corrected F508del/F508del HBEs (TECC)): 80.7 ± 21.7 nM
